Assay results published in patent publication EP0450097B1, “BENZOHETEROCYCLIC COMPOUNDS” (OTSUKA PHARMACEUTICAL CO., LTD., priority 1989, dated 1991).

How the values were obtained:
V₁ receptor = target: T1, V₁ receptor (Rattus norvegicus, UniProt P30560); assay: V₁ receptor binding assay ([³H]-Arg-vasopressin, rat liver plasma membrane preparations); conditions: 37°C for 10 minutes
T1 construct: Using rat liver plasma membrane preparations; from tissue; host or cells: rat liver plasma membranes
T1 sequence (P30560 whole entry): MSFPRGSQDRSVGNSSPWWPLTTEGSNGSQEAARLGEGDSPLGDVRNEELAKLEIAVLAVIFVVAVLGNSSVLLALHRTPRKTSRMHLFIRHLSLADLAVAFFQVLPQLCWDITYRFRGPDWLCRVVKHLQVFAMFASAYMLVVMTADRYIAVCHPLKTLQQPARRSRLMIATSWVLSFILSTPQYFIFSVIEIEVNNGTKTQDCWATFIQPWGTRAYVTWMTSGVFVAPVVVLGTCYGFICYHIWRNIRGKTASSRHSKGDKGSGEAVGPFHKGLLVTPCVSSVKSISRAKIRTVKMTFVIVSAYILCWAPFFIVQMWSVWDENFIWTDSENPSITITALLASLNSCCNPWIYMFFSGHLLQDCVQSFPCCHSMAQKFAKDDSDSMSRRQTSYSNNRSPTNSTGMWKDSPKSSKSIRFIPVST
Protocol: Using rat liver plasma membrane preparations prepared according to Ichihara's method [cf: Akira Ichihara, J. Bio. Chem., 258, 9283 (1983)], the plasma membrane (50000dpm, 2x10⁻¹⁰ M) of [³H]-Arg-vasopressin and a test compound (60 µg, 10⁻⁸-10⁻⁴ M) are incubated at 37°C for 10 minutes in 100 mM Tris-HCl buffer (pH: 8.0, 250 µl) containing 5 mM MgCl₂, 1 mM EDTA and 0.1 % BSA. After incubation, the mixture is filtered three times using the glass filter (GF/F) so as to separate the membrane preparation combined with vasopressin and then washed with the buffer (5 ml). This glass filter is taken out and mixed with liquid scintillation cocktail. The amount of [³H]-vasopressin combined with the membrane is measured by liquid scintillation counter and the rate of the inhibitory effect of the test compound is estimated according to the following equation. Rate of the inhibitory effect (%) = 100 -(C1 - B1)/(C0 - B1)X 100 [formula] C¹: The amount of [³H]-vasopressin combined with the membrane in the presence of the test compound (in prescribed amount). C⁰: The amount of [³H]-vasopressin combined with the membrane in the absence of the test compound. B¹: The amount of [³H]-vasopressin combined with the membrane in the presence of the excess amount of vasopressin (10⁻⁶ M).
(§1) The results are expressed as IC₅₀ values, which is the concentration of the test compound required to achieve the inhibitory effect in the rate of 50 %.

V₂ receptor = target: T2, V₂ receptor (Rattus norvegicus, UniProt Q00788); assay: V₂ receptor binding assay ([³H]-Arg-vasopressin, rat kidney plasma membrane preparations); conditions: 4°C for 3 hours
T2 construct: Using rat kidney plasma membrane preparations; from tissue; host or cells: rat kidney plasma membranes
T2 sequence (Q00788 whole entry): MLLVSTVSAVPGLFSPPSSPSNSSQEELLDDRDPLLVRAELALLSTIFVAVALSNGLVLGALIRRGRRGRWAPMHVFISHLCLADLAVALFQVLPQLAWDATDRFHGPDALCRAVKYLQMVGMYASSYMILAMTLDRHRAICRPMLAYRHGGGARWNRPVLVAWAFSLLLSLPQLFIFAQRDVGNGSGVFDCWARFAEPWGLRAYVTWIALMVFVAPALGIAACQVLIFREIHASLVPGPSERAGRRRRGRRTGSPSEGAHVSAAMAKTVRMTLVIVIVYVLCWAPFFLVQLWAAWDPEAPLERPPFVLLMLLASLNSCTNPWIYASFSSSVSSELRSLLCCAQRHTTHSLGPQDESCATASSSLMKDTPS
Protocol: Using rat kidney plasma membrane preparations prepared according to O. Hechter's method [cf: J. Bio. […] After incubation, the mixture is filtered using the glass filter (GF/F) so as to separate the membrane preparation combined with vasopressin and then washed twice with the buffer (5 ml). This glass filter is taken out and mixed with liquid scintillation cocktail. The amount of [³H]-vasopressin combined with the membrane is measured by liquid scintillation counter and the rate of the inhibitory effect of the test compound is estimated according to the following equation. Rate of the inhibitory effect (%) = 100 -(C1 - B1)/(C0 - B1)X 100 [formula] C¹: The amount of [³H]-vasopressin combined with the membrane in the presence of the test compound (in prescribed amount). C⁰: The amount of [³H)-vasopressin combined with the membrane in the absence of the test compound. B¹: The amount of [³H]-vasopressin combined with the membrane in the presence of the excess amount of vasopressin (10⁻⁶ M).
as §1

SMILES | IC50 (V₁ receptor) [µM] | IC50 (V₂ receptor) [µM]
O=C(Nc1ccc(C(=O)N2CCCCc3ccccc32)cc1)C1CCCCC1 [compound 26] | 0.071 | 0.025
O=C(Nc1ccc(C(=O)N2CCCCc3ccccc32)cc1)c1ccccc1 [compound 27] | 0.095 | 0.07
Cc1ccccc1C(=O)Nc1ccc(C(=O)N2CCCCc3ccccc32)cc1 [compound 28] | 0.056 | 0.018
COc1cccc(C(=O)Nc2ccc(C(=O)N3CCCCc4ccccc43)cc2)c1 [compound 29] | 0.15 | 0.069
O=C(Nc1ccc(C(=O)N2CCCCc3ccccc32)cc1)c1cccc(Cl)c1 [compound 30] | 0.15 | 0.029
O=C(Nc1ccc(C(=O)N2CCCCc3ccccc32)cc1)c1cc(Cl)cc(Cl)c1 [compound 32] | 0.3 | 0.016
Cc1ccccc1C(=O)Nc1ccc(C(=O)N2CCCCCc3ccccc32)cc1 [compound 36] | 0.41 | 0.028
Cc1ccccc1C(=O)Nc1ccc(C(=O)N2CC(C)Cc3ccccc32)cc1 (centres unmarked) [compound 46] | 0.4 | 0.018
O=C(Nc1ccc(C(=O)N2CCCCc3ccccc32)cc1)c1ccccc1Br [compound 56] | 0.025 | 0.037
O=C(Nc1ccc(C(=O)N2CCCCc3ccccc32)cc1)c1cccc([N+](=O)[O-])c1 [compound 57] | 0.46 | 0.16
O=C(Nc1ccc(C(=O)N2CCCCc3ccccc32)cc1)c1cccc(C(F)(F)F)c1 [compound 58] | 0.4 | 0.14
CCOc1cccc(C(=O)Nc2ccc(C(=O)N3CCCCc4ccccc43)cc2)c1 [compound 59] | 0.31 | 0.24
COc1cc(OC)cc(C(=O)Nc2ccc(C(=O)N3CCCCc4ccccc43)cc2)c1 [compound 60] | 0.18 | 0.15
O=C(Nc1ccc(C(=O)N2CCCCc3ccccc32)cc1)c1ccc(Cl)cc1Cl [compound 62] | 0.098 | 0.023
O=C(Nc1ccc(C(=O)N2CCCCc3ccccc32)cc1)c1c(F)cccc1Cl [compound 63] | 0.14 | 0.046
Cc1cccc(C)c1C(=O)Nc1ccc(C(=O)N2CCCCc3ccccc32)cc1 [compound 64] | 0.069 | 0.007

SMILES | IC50 (V₁ receptor) [µM] | IC50 (V₂ receptor) [µM]
Nc1cccc(C(=O)Nc2ccc(C(=O)N3CCCCc4ccccc43)cc2)c1 [compound 67] | 0.34 | 0.05
CC(C)NCCCCOc1ccccc1C(=O)Nc1ccc(C(=O)N2CCCCc3ccccc32)cc1 [compound 68] | 0.013 | 0.19
O=C(Nc1ccc(C(=O)N2CCCCc3ccccc32)cc1)c1cccc(O)c1 [compound 69] | 0.066 | 0.12
NCCCCOc1ccccc1C(=O)Nc1ccc(C(=O)N2CCCCc3ccccc32)cc1 [compound 70] | 0.041 | 0.012
CCN(CC)CCOc1ccccc1C(=O)Nc1ccc(C(=O)N2CCCCc3ccccc32)cc1 [compound 71] | 0.18 | 0.085
CC(=O)NCCCCOc1ccccc1C(=O)Nc1ccc(C(=O)N2CCCCc3ccccc32)cc1 [compound 72] | 0.12 | 0.16
O=C(Nc1ccc(C(=O)N2CCCCc3ccccc32)cc1)c1ccccc1OCCCCCCN1CCOCC1 [compound 74] | 0.1 | 0.51
CN1CCN(CCCCCCOc2ccccc2C(=O)Nc2ccc(C(=O)N3CCCCc4ccccc43)cc2)CC1 [compound 75] | 0.069 | 0.3
COc1cc(C(=O)N2CCCCc3ccccc32)ccc1NC(=O)C1CCCCC1 [compound 76] | 0.042 | 0.017
COc1cc(C(=O)N2CCCCc3ccccc32)ccc1NC(=O)c1ccccc1 [compound 77] | 0.085 | 0.09
Cc1cc(C(=O)N2CCCCc3ccccc32)ccc1NC(=O)c1ccccc1C [compound 78] | 0.1 | 0.084
CN1CCCN(C(=O)c2ccc(NC(=O)C3CCCCC3)cc2)c2ccccc21 [compound 88] | 0.34 | 0.021
Cc1ccccc1C(=O)Nc1ccc(C(=O)N2CCCN(C)c3ccccc32)cc1 [compound 90] | 0.38 | 0.014
CCN(CC(=O)Nc1ccc(C(=O)N2CCCCc3ccccc32)cc1)c1ccccc1 [compound 114] | 0.011 | 0.006
C=CCN(CC(=O)Nc1ccc(C(=O)N2CCCCc3ccccc32)cc1)c1ccccc1 [compound 115] | 0.012 | 0.006

Now from value to compound:

IC50 (V₁ receptor) [µM] | IC50 (V₂ receptor) [µM] | SMILES
0.04 | 0.039 | O=C(CNc1ccccc1Cl)Nc1ccc(C(=O)N2CCCCc3ccccc32)cc1 [compound 116]
0.22 | 0.24 | CC(=O)OCCCCOc1ccccc1C(=O)Nc1ccc(C(=O)N2CCCCc3ccccc32)cc1 [compound 117]
0.049 | 0.059 | NC(=O)COc1ccccc1C(=O)Nc1ccc(C(=O)N2CCCCc3ccccc32)cc1 [compound 119]
0.29 | 0.28 | O=C(Nc1ccc(C(=O)N2CCCCc3ccccc32)cc1)c1ccccc1OCCCCO [compound 120]
0.45 | 0.18 | CCOC(=O)COc1ccccc1C(=O)Nc1ccc(C(=O)N2CCCCc3ccccc32)cc1 [compound 121]
0.15 | 0.13 | CCN(CC)C(=O)COc1ccccc1C(=O)Nc1ccc(C(=O)N2CCCCc3ccccc32)cc1 [compound 124]
0.091 | 0.28 | CN(CCO)CCOc1ccccc1C(=O)Nc1ccc(C(=O)N2CCCCc3ccccc32)cc1 [compound 125]
0.023 | 0.007 | C#CCN(CC(=O)Nc1ccc(C(=O)N2CCCCc3ccccc32)cc1)c1ccccc1 [compound 130]
0.15 | 0.008 | Cc1ccccc1C(=O)Nc1ccc(C(=O)N2CCCC(O)c3ccccc32)cc1 (centres unmarked) [compound 143]
0.28 | 0.009 | COC1CCCN(C(=O)c2ccc(NC(=O)c3ccccc3C)cc2)c2ccccc21 (centres unmarked) [compound 147]
0.14 | 0.009 | Cc1ccccc1C(=O)Nc1ccc(C(=O)N2CCCC(OCCCCN(C)C)c3ccccc32)cc1 (centres unmarked) [compound 161]
0.22 | 0.009 | Cc1ccccc1C(=O)Nc1ccc(C(=O)N2CCCC(OCC(=O)N(C)C)c3ccccc32)cc1 (centres unmarked) [compound 163]
0.15 | 0.01 | NC(=O)COC1CCCN(C(=O)c2ccc(NC(=O)c3ccccc3Cl)cc2)c2ccccc21 (centres unmarked) [compound 164]
0.26 | 0.023 | Cc1ccccc1C(=O)Nc1ccc(C(=O)N2CCCC(OCCCN3C(=O)c4ccccc4C3=O)c3ccccc32)cc1 (centres unmarked) [compound 172]
0.15 | 0.008 | Cc1ccccc1C(=O)Nc1ccc(C(=O)N2CCCC(OCCCN)c3ccccc32)cc1 (centres unmarked) [compound 173]
0.14 | 0.007 | CC(=O)NCCCOC1CCCN(C(=O)c2ccc(NC(=O)c3ccccc3C)cc2)c2ccccc21 (centres unmarked) [compound 174]
0.45 | 0.029 | Cc1ccccc1C(=O)Nc1ccc(C(=O)N2CCCC(OC(=O)N(C)C)c3ccccc32)cc1 (centres unmarked) [compound 187]
0.47 | 0.039 | CN(C)C1CCCN(C(=O)c2ccc(NC(=O)c3ccccc3C(F)(F)F)cc2)c2ccccc21 (centres unmarked) [compound 188]
0.054 | 0.011 | Cc1ccccc1C(=O)Nc1ccc(C(=O)N2CCSCc3ccccc32)cc1 [compound 192]
0.17 | 0.036 | Cc1ccccc1C(=O)Nc1ccc(C(=O)N2CCC(=O)Cc3ccccc32)cc1 [compound 193]
0.17 | 0.01 | CNC(=O)COC1CCCN(C(=O)c2ccc(NC(=O)c3ccccc3Cl)cc2)c2ccccc21 (centres unmarked) [compound 195]
0.4 | 0.013 | CNC(=O)OC1CCCN(C(=O)c2ccc(NC(=O)c3ccccc3C)cc2)c2ccccc21 (centres unmarked) [compound 196]
0.16 | 0.045 | O=C(Nc1ccc(C(=O)N2CCC=Cc3ccccc32)cc1)c1ccccc1Cl [compound 207]
0.11 | 0.007 | Cc1ccccc1C(=O)Nc1ccc(C(=O)N2CCCC(C)c3ccccc32)cc1 (centres unmarked) [compound 208]
0.074 | 0.004 | C=C1CCCN(C(=O)c2ccc(NC(=O)c3ccccc3C)cc2)c2ccccc21 [compound 209]
 | 0.039 | CNC1CCCCN(C(=O)c2ccc(NC(=O)c3ccccc3C)cc2)c2ccccc21 (centres unmarked) [compound 320]
